Source: patent US6537986B2, “Oxazolidinone antibacterial agents having a thiocarbonyl funtionality” (Pharmacia & Upjohn Company, priority 1997, dated 2003)
Values after ≈ are worked out from the molar mass of the structure shown. Where two headings read alike, the source gives them in different places.

Assays:
E. Faecium (EFAE 12712) = assay: MIC, standard agar dilution method; type: cell-based; details: Enterococcus faecium; Table II; key: E. Faecium; agar dilution, Mueller Hinton agar, incubated overnight at 35° C.; read-out: EFAE 12712 MIC
Method: (§1) MIC Test Method The in vitro MICs of test compounds were determined by a standard agar dilution method. […] Serial 2-fold dilutions of each sample are made using 1.0 ml aliquots of sterile distilled water. To each 1.0 ml aliquot of drug is added 9 ml of molten Mueller Hinton agar medium. The drug-supplemented agar is mixed, poured into 15×100 mm petri dishes, and allowed to solidify and dry prior to inoculation. Vials of each of the test organisms are maintained frozen in the vapor phase of a liquid nitrogen freezer. Test cultures are grown overnight at 35° C. on the medium appropriate for the organism. Colonies are harvested with a sterile swab, and cell suspensions are prepared in Trypticase Soy broth (TSB) to equal the turbidity of a 0.5 McFarland standard. A 1:20 dilution of each suspension is made in TSB. […] The plates are incubated overnight at 35° C. Following incubation the Minimum Inhibitory Concentration (MIC μg/ml), the lowest concentration of drug that inhibits visible growth of the organism, is read and recorded.

[1] = system: Enterococcus faecalis (EFAE 9217); assay: MIC, standard agar dilution method; type: cell-based; details: incubated overnight at 35° C.
Method: as §1

[2] = system: Haemophilus influenzae (HINF 30063); assay: MIC, standard agar dilution method; type: cell-based; details: Haemophilus influenzae, Table II, Mueller Hinton agar, incubated overnight at 35° C.
Method: as §1

[3] = system: Moraxella catarrhalis (MCAT 30610); assay: MIC, standard agar dilution method; type: cell-based; details: Moraxella catarrhalis, Table II, Mueller Hinton agar, incubated overnight at 35° C.
Method: as §1

S. aureus (SAUR 9213) = assay: MIC, standard agar dilution method; type: cell-based; details: Staphylococcus aureus, incubated overnight at 35° C.
Method: as §1

[4] = system: S. epidermidis (SEPI 30593); assay: MIC, standard agar dilution method; type: cell-based; details: Staphylococcus epidermidis, Table II, Mueller Hinton agar, incubated overnight at 35° C.
Method: as §1

[5] = system: S. pneumoniae (SPNE 9912); assay: MIC, standard agar dilution method; type: cell-based; details: Streptococcus pneumoniae, incubated overnight at 35° C.
Method: as §1

S. pyogenes (SPYO 152) = assay: MIC, standard agar dilution method; type: cell-based; details: Streptococcus pyogenes, incubated overnight at 35° C.
Method: as §1

[6] = system: S. epidermidis (SEPI 12084); assay: MIC, standard agar dilution method; type: cell-based; details: Staphylococcus epidermidis, Table 1, Mueller Hinton agar, incubated overnight at 35° C., read-out: Oxazolidinone MIC Values (Gram+) SEPI 12084
Method: MIC Test Method The in vitro MICs of test compounds were determined by a standard agar dilution method. A stock drug solution of each analog is prepared in the preferred solvent, usually DMSO:H2O (1:3). Serial 2-fold dilutions of each sample are made using 1.0 ml aliquots of sterile distilled water. To each 1.0 ml aliquot of drug is added 9 ml of molten Mueller Hinton agar medium. The drug-supplemented agar is mixed, poured into 15×100 mm petri dishes, and allowed to solidify and dry prior to inoculation. Vials of each of the test organisms are maintained frozen in the vapor phase of a liquid nitrogen freezer. Test cultures are grown overnight at 35° C. on the medium appropriate for the organism. Colonies are harvested with a sterile swab, and cell suspensions are prepared in Trypticase Soy broth (TSB) to equal the turbidity of a 0.5 McFarland standard. A 1:20 dilution of each suspension is made in TSB. […] The plates are incubated overnight at 35° C. Following incubation the Minimum Inhibitory Concentration (MIC μg/ml), the lowest concentration of drug that inhibits visible growth of the organism, is read and recorded.

[7] = Enterococcus faecalis, Table 1, Mueller Hinton agar, read-out: Oxazolidinone MIC Values (Gram+) EFAE 9217
[8] = Table II, key: Enterococcus faecalis, Mueller Hinton agar, read-out: EFAE 9217 MIC
[9] = Table 1, Mueller Hinton agar, read-out: Oxazolidinone MIC Values (Gram+) SAUR 9213
[10] = Table II, Mueller Hinton agar, read-out: SAUR 9213 MIC
[11] = Table 1, Mueller Hinton agar, read-out: Oxazolidinone MIC Values (Gram+) SPNE 9912
[12] = Table II, Mueller Hinton agar, read-out: SPNE 9912 MIC
[13] = Table 1, Mueller Hinton agar, read-out: Oxazolidinone MIC Values (Gram+) SPYO 152
[14] = Table II, Mueller Hinton agar, read-out: SPYO 152 MIC

Structure (SMILES) | MIC (E. Faecium (EFAE 12712)) [µg/mL] | MIC [1, 7] [µg/mL] | MIC [1, 8] [µg/mL] | MIC [2] [µg/mL] | MIC [3] [µg/mL] | MIC (S. aureus (SAUR 9213); [9]) [µg/mL] | MIC (S. aureus (SAUR 9213); [10]) [µg/mL] | MIC [4] [µg/mL] | MIC [5, 11] [µg/mL] | MIC [5, 12] [µg/mL] | MIC (S. pyogenes (SPYO 152); [13]) [µg/mL] | MIC (S. pyogenes (SPYO 152); [14]) [µg/mL] | MIC [6] [µg/mL] | melting point
O=C1O[C@@H](CNC=S)CN1c1ccc(N2CCOCC2)c(F)c1 [Example 13, (S)-N-[[3-[3-Fluoro-4-(4-morpholinyl)phenyl]-2-oxo-5-oxazolidinyl]methyl]-thioformamide] | 2 (≈ 5.89 µM) |  | 2 (≈ 5.89 µM) | > 16 | 8 (≈ 23.6 µM) |  | 1 (≈ 2.95 µM) | 1 (≈ 2.95 µM) |  | 0.5 (≈ 1.47 µM) |  | 1 (≈ 2.95 µM) |  | 150 to 155 °C (dec.)
CC(=O)NC[C@H]1CN(c2ccc(N3CCC4(CC3)NC(=O)NC4=O)c(F)c2)C(=O)O1 [reference compound] |  | 8 (≈ 19.1 µM) |  |  |  | 16 (≈ 38.1 µM) |  |  | 0.5 (≈ 1.19 µM) |  | 1 (≈ 2.38 µM) |  | 4 (≈ 9.54 µM) | 
NC(=S)NC[C@H]1CN(c2ccc(N3CCOCC3)c(F)c2)C(=O)O1 [Example 5, (S)-N-[[3-[3-Fluoro-4-(4-morpholinyl)phenyl]-2-oxo-5-oxazolidinyl]methyl]thiourea] | 0.5 (≈ 1.41 µM) | 0.5 (≈ 1.41 µM) | 0.5 (≈ 1.41 µM) | 4 (≈ 11.3 µM) | 2 (≈ 5.64 µM) | 1 (≈ 2.82 µM) | 1 (≈ 2.82 µM) | 0.5 (≈ 1.41 µM) | < 0.125 | < 0.125 | 0.25 (≈ 0.705 µM) | 0.25 (≈ 0.705 µM) | 0.25 (≈ 0.705 µM) | 199 to 199.5 °C
O=C1O[C@@H](CNC(=S)C(F)(F)F)CN1c1ccc(N2CCOCC2)c(F)c1 [Example 16, (S)-N-[[3-[3-Fluoro-4-(4-moropholinyl)phenyl]-2-oxo-5-oxazolidinyl]methyl]-α,α,α-trifluorothioacetamide] | 16 (≈ 39.3 µM) |  | 16 (≈ 39.3 µM) | > 64 | 32 (≈ 78.5 µM) |  | 8 (≈ 19.6 µM) | 8 (≈ 19.6 µM) |  | 2 (≈ 4.91 µM) |  | 8 (≈ 19.6 µM) |  | 151 to 152 °C
CC(=S)NC[C@H]1CN(c2ccc(N3CCC4(CC3)NC(=O)NC4=O)c(F)c2)C(=O)O1 [Example 3, (S)-N-[[3-[3-Fluoro-4-[2′,5′-dioxospiro[piperidine-4,4′-imidazolidine]-1-yl]phenyl]-2-oxo-5-oxazolidinyl]methyl]thioacetamide] | 1 (≈ 2.3 µM) | 2 (≈ 4.59 µM) | 2 (≈ 4.59 µM) | 16 (≈ 36.7 µM) | 4 (≈ 9.19 µM) | 4 (≈ 9.19 µM) | 4 (≈ 9.19 µM) | 1 (≈ 2.3 µM) | 0.25 (≈ 0.574 µM) | 0.25 (≈ 0.574 µM) | 0.5 (≈ 1.15 µM) | 0.5 (≈ 1.15 µM) | 1 (≈ 2.3 µM) | 
CC(=S)NC[C@H]1CN(c2ccc(N3CC[S+]([O-])CC3)c(F)c2)C(=O)O1 [Example 27, (S)-N-[[3-[3-Fluoro-4-(4-thiomorpholinyl)phenyl]-2-oxo-5-oxazolidinyl]methyl]thio-acetamide, thiomorpholine S-oxide] | 0.5 (≈ 1.3 µM) |  | 1 (≈ 2.59 µM) | 4 (≈ 10.4 µM) | 2 (≈ 5.19 µM) |  | 0.5 (≈ 1.3 µM) | 0.5 (≈ 1.3 µM) |  | < 0.125 |  | 0.25 (≈ 0.649 µM) |  | 176 to 177 °C
CC(=S)NC[C@H]1CN(c2cc(F)c(N3CCN(C(=O)CO)CC3)c(F)c2)C(=O)O1 [Example 29, (S)-N-[[3-[3,5-Difluoro-4-[4-(hydroxyacetyl)-1-piperazinyl]phenyl]-2-oxo-5-oxazolidinyl]methyl]thioacetamide] | 0.25 (≈ 0.583 µM) |  | 0.25 (≈ 0.583 µM) | 2 (≈ 4.67 µM) | 0.5 (≈ 1.17 µM) |  | 0.25 (≈ 0.583 µM) | 0.25 (≈ 0.583 µM) |  | < 0.125 |  | < 0.125 |  | 110 to 111 °C (dec.)
CC(=O)NC[C@H]1CN(c2ccc(N3CCOCC3)c(F)c2)C(=O)O1 [reference compound] |  | 2 (≈ 5.93 µM) |  |  |  | 2 (≈ 5.93 µM) |  |  | 0.5 (≈ 1.48 µM) |  | 1 (≈ 2.96 µM) |  | 1 (≈ 2.96 µM) | 
NC(=S)NC[C@H]1CN(c2ccc(N3CC[S+]([O-])CC3)c(F)c2)C(=O)O1 [Example 33, (S)-N-[[3-[3-Fluoro-4-(4-thiomorpholinyl)phenyl]-2-oxo-5-oxazolidinyl]methyl]thiourea, thiomorpholine S-oxide] | 1 (≈ 2.59 µM) |  | 4 (≈ 10.3 µM) | 4 (≈ 10.3 µM) | 2 (≈ 5.17 µM) |  | 4 (≈ 10.3 µM) | 2 (≈ 5.17 µM) |  | 0.25 (≈ 0.647 µM) |  | 0.25 (≈ 0.647 µM) |  | 212 to 213 °C

Now from value to compound:

MIC (E. Faecium (EFAE 12712)) [µg/mL] | MIC [1, 7] [µg/mL] | MIC [1, 8] [µg/mL] | MIC [2] [µg/mL] | MIC [3] [µg/mL] | MIC (S. aureus (SAUR 9213); [9]) [µg/mL] | MIC (S. aureus (SAUR 9213); [10]) [µg/mL] | MIC [4] [µg/mL] | MIC [5, 11] [µg/mL] | MIC [5, 12] [µg/mL] | MIC (S. pyogenes (SPYO 152); [13]) [µg/mL] | MIC (S. pyogenes (SPYO 152); [14]) [µg/mL] | MIC [6] [µg/mL] | melting point | Structure (SMILES)
8 (≈ 17.8 µM) | 4 (≈ 8.88 µM) | 4 (≈ 8.88 µM) | > 16 | > 16 | 8 (≈ 17.8 µM) | 8 (≈ 17.8 µM) | 4 (≈ 8.88 µM) | 2 (≈ 4.44 µM) | 2 (≈ 4.44 µM) | 4 (≈ 8.88 µM) | 4 (≈ 8.88 µM) | 2 (≈ 4.44 µM) | 222 to 223 °C | CC(=S)NC[C@H]1CN(c2ccc(N3CCN(c4nnc(C)s4)CC3)c(F)c2)C(=O)O1 [Example 2, (S)-N-[[3-[3-Fluoro-4-[4-(5-methyl-1,3,4-thiadiazol-2-yl)-1-piperazinyl]phenyl]-2-oxo-5-oxazolidinyl]methyl]thioacetamide]
1 (≈ 2.72 µM) |  | 1 (≈ 2.72 µM) | 8 (≈ 21.8 µM) | 1 (≈ 2.72 µM) |  | 1 (≈ 2.72 µM) | 0.5 (≈ 1.36 µM) |  | 0.25 (≈ 0.68 µM) |  | 0.5 (≈ 1.36 µM) |  | 138 to 139 °C | CCC(=S)NC[C@H]1CN(c2ccc(N3CCOCC3)c(F)c2)C(=O)O1 [Example 14, (S)-N-[[3-[3-Fluoro-4-(4-morpholinyl)phenyl]-2-oxo-5-oxazolidinyl]methyl]thiopropion-amide]
2 (≈ 5.43 µM) | 2 (≈ 5.43 µM) | 2 (≈ 5.43 µM) | 16 (≈ 43.4 µM) | 8 (≈ 21.7 µM) | 2 (≈ 5.43 µM) | 2 (≈ 5.43 µM) | 2 (≈ 5.43 µM) | 0.5 (≈ 1.36 µM) | 0.5 (≈ 1.36 µM) | 1 (≈ 2.71 µM) | 1 (≈ 2.71 µM) | 1 (≈ 2.71 µM) | 158 to 160 °C | CNC(=S)NC[C@H]1CN(c2ccc(N3CCOCC3)c(F)c2)C(=O)O1 [Example 6, (S)-N-[[3-[3-Fluoro-4-(4-morpholinyl)phenyl]-2-oxo-5-oxazolidinyl]methyl]-N′-methylthiourea]
2 (≈ 5.71 µM) |  | 4 (≈ 11.4 µM) | 8 (≈ 22.8 µM) | 2 (≈ 5.71 µM) |  | 16 (≈ 45.7 µM) | 2 (≈ 5.71 µM) |  | 0.25 (≈ 0.713 µM) |  | 0.25 (≈ 0.713 µM) |  | 214 to 215 °C (dec.) | NC(=S)NC[C@H]1CN(c2ccc3c(c2)CCN3C(=O)CO)C(=O)O1 [Example 32, (S)-N-[[3-[1-(Hydroxyacetyl)-5-indolinyl]-2-oxo-5-5 oxazolidinyl]methyl]thiourea]
2 (≈ 5.14 µM) |  | 2 (≈ 5.14 µM) | 32 (≈ 82.2 µM) | 4 (≈ 10.3 µM) |  | 2 (≈ 5.14 µM) | 1 (≈ 2.57 µM) |  | < 0.5 |  | 1 (≈ 2.57 µM) |  | 125 to 127 °C | O=C1O[C@@H](CNC(=S)C(F)F)CN1c1ccc(N2CCOCC2)c(F)c1 [Example 18, (S)-N-[[3-[3-Fluoro-4-(4-morpholinyl)phenyl]-2-oxo-5-oxazolidinyl]methyl]-α,α-difluorothioacetamide]
 | 1 (≈ 2.3 µM) |  |  |  | 0.5 (≈ 1.15 µM) |  |  | 0.13 (≈ 0.299 µM) |  | 0.25 (≈ 0.575 µM) |  | 0.25 (≈ 0.575 µM) |  | CC(=O)NC[C@H]1CN(c2ccc(N3CCN(c4nnc(C)s4)CC3)c(F)c2)C(=O)O1 [reference compound]
